One data set deals with Myzus persicae. In words: Green peach aphid (Myzus persicae) artificial diet test. The data set is classed as in vivo. The note with it: 72 h, read-out: mortality in comparison with untreated controls. The source says:
For evaluating control of green peach aphid (Myzus persicae) the test unit consisted of 96-well-microtiter plates containing liquid artificial diet under an artificial membrane.
The compounds were formulated using a solution containing 75% v/v water and 25% v/v DMSO. Different concentrations of formulated compounds were pipetted into the aphid diet, using a custom built pipetter, at two replications.
After application, 5-8 adult aphids were placed on the artificial membrane inside the microtiter plate wells. The aphids were then allowed to suck on the treated aphid diet and incubated at about 23±1° C. and about 50±5% relative humidity for 3 days. Aphid mortality and fecundity was then visually assessed.

The subject of another data set is Megoura viciae. The data set is described as follows: Vetch aphid (Megoura viciae) leaf disk test. The data set is classed as in vivo. The note with it: foliar, 120 h, read-out: mortality in comparison with untreated controls. Here is the method:
For evaluating control of vetch aphid (Megoura viciae) through contact or systemic means the test unit consisted of 24-well-microtiter plates containing broad bean leaf disks.
The compounds were formulated using a solution containing 75% v/v water and 25% v/v DMSO. Different concentrations of formulated compounds were sprayed onto the leaf disks at 2.5 μl, using a custom built micro atomizer, at two replications.
After application, the leaf disks were air-dried and 5-8 adult aphids placed on the leaf disks inside the microtiter plate wells. The aphids were then allowed to suck on the treated leaf disks and incubated at about 23±1° C. and about 50±5% relative humidity for 5 days. Aphid mortality and fecundity was then visually assessed.

Another data set concerns Ceratitis capitata. The data set is described as follows: Mediterranean fruitfly (Ceratitis capitata) diet/egg test. Format: in vivo. As to conditions: 120 h, read-out: mortality in comparison with untreated controls. Here is the method: For evaluating control of Mediterranean fruitfly (Ceratitis capitata) the test unit consisted of microtiter plates containing an insect diet and 50-80 C. capitata eggs.
The compounds were formulated using a solution containing 75% v/v water and 25% v/v DMSO. Different concentrations of formulated compounds were sprayed onto the insect diet at 5 nl, using a custom built micro atomizer, at two replications.
(§1) After application, microtiter plates were incubated at about 28±1° C. and about 80±5% relative humidity for 5 days. Egg and larval mortality was then visually assessed.

The next data set has as its system Anthonomus grandis. The data set is described as follows: Boll weevil (Anthonomus grandis) diet/egg test. The data set is classed as in vivo. The note with it: 120 h, read-out: mortality in comparison with untreated controls. How it is done:
For evaluating control of boll weevil (Anthonomus grandis) the test unit consisted of 24-well-microtiter plates containing an insect diet and 20-30 A. grandis eggs.
The compounds were formulated using a solution containing 75% v/v water and 25% v/v DMSO. Different concentrations of formulated compounds were sprayed onto the insect diet at 20 μl, using a custom built micro atomizer, at two replications.
After application, microtiter plates were incubated at about 23±1° C. and about 50±5% relative humidity for 5 days. Egg and larval mortality was then visually assessed.

Another data set deals with Aedes aegypti. The data set is described as follows: Aedes aegypti neonate larvae motility assay. Format: in vivo. As to conditions: larval motility, dose response. How it is done: Compounds formulated in 100% DMSO are tested in microtiter plates containing 180 ul 1× Luria Broth media and 10 neonate A. aegypti larvae. The efficacy of a compound is determined based on the motility of the larvae as compared to average motility of control wells containing DMSO only. A dose response assay is conducted with compounds with >80% reduction in motility in the primary assay to determine an EC50 value. Selected compounds are advanced to insecticide secondary assays.

The next data set relates to Heliothis virescens. The data set is described as follows: Tobacco budworm (Heliothis virescens) diet/egg test. The data set is classed as in vivo. As to conditions: for mortality at 2500 ppm: Heliothis virescens, 120 h, read-out: mortality in comparison with untreated controls. Here is the method:
For evaluating control of tobacco budworm (Heliothis virescens) the test unit consisted of 96-well-microtiter plates containing an insect diet and 15-25 H. virescens eggs.
The compounds were formulated using a solution containing 75% v/v water and 25% v/v DMSO. Different concentrations of formulated compounds were sprayed onto the insect diet at 10 μl, using a custom built micro atomizer, at two replications.
as §1
The biological activity shown tables under CB.1 and CB.2 was evaluated on scale range from 0% as showing no biological activity to 100% as having total control. The biological tests were conducted as described above.

Where [1] appears, read: 2500 ppm, adult aphids on treated artificial diet, 3 days.
The mark [2] stands for this setting: 2500 ppm, adult aphids on sprayed broad bean leaf disks, 5 days.
[3] abbreviates: 2500 ppm, egg and larval mortality, 5 days.

Where two headings read alike, the source gives them in different places.

A word on the mortality: it is the percentage killed. The term EC50 denotes the concentration that produces a half-maximal response. Read a high EC50 as a need for much substance. On to `CCOC(=O)C(CCSC(F)(F)F)S(=O)(=O)CCC(F)(F)C(F)(F)F` (centres unmarked) [II-3, Ethyl 2-(3,3,4,4,4-Pentafluoro-butane-1-sulfonyl)-4-trifluoromethylsulfanyl-butyrate], for which the mortality at 2500 ppm in the data set with Myzus persicae (setting [1]), with Megoura viciae (setting [2]), in the data set with Ceratitis capitata (setting [3]) and in the data set with Anthonomus grandis (setting [3]) was more than 90% throughout. The EC50 with Aedes aegypti is less than 5 µg/mL.

As a reminder, the melting point is the temperature of the solid-liquid transition. `N#CC(CCSC(F)(F)F)S(=O)(=O)Cc1ccc(C(F)(F)F)nc1` (centres unmarked) [II-9, 2-(6-Trifluoromethyl-pyridin-3-ylmethanesulfonyl)-4-trifluoromethylsulfanyl-butyronitrile] registered a melting point of 129 to 130 °C.

Regarding `CCOC(=O)C(C)(CCSC(F)(F)F)S(=O)(=O)CCC(F)(F)C(F)(F)F` (centres unmarked) [II-4, Ethyl 2-methyl-2-(3,3,4,4,4-pentafluoro-butane-1-sulfonyl)-4-trifluoromethylsulfanyl-butyrate], the mortality at 2500 ppm in the data set with Myzus persicae (setting [1]), with Megoura viciae (setting [2]), with Ceratitis capitata (setting [3]) and in the data set on Anthonomus grandis (setting [3]) was more than 90% each time. In the data set on Aedes aegypti, this molecule came in with an EC50 of less than 5 µg/mL.

Turning to `N#CC(CCSC(F)(F)F)S(=O)(=O)Cc1ccc(Cl)nc1` (centres unmarked) [II-7, 2-(6-Chloro-pyridin-3-ylmethanesulfonyl)-4-trifluoromethylsulfanyl-butyronitrile], the melting point is 122 to 124 °C.

On to `CN(C)C(=O)C(C)(CCSC(F)(F)F)S(=O)(=O)CCC(F)(F)C(F)(F)F` (centres unmarked) [II-22, 2,N,N-Trimethyl-2-(3,3,4,4,4-pentafluoro-butane-1-sulfonyl)-4-trifluoromethylsulfanyl-butyramide], for which the mortality at 2500 ppm in the data set on Myzus persicae (setting [1]), with Megoura viciae (setting [2]), with Ceratitis capitata (setting [3]) and with Anthonomus grandis (setting [3]) was more than 90% throughout. For the same molecule, in the data set with Aedes aegypti, the EC50 was less than 5 µg/mL.

With `CC(CCSC(F)(F)F)(C(=O)O)S(=O)(=O)CCC(F)(F)C(F)(F)F` (centres unmarked) [II-19, 2-Methyl-2-(3,3,4,4,4-pentafluoro-butane-1-sulfonyl)-4-trifluoromethylsulfanyl-butyric acid], the mortality at 2500 ppm with Megoura viciae (setting [2]) and in the data set with Anthonomus grandis (setting [3]) was more than 90% in each case.

Turning to `CC(C#N)(CCSC(F)(F)F)S(=O)(=O)Cc1ccc(C(F)(F)F)cc1` (centres unmarked) [II-12, 2-Methyl-2-(4-trifluoromethyl-phenylmethanesulfonyl)-4-trifluoromethylsulfanyl-butyronitrile], the melting point was 102 to 104 °C.

Molecule `CC(C#N)(CCSC(F)(F)F)S(=O)(=O)Cc1cccc(C(F)(F)F)c1` (centres unmarked) [II-6, 2-Methyl-2-(3-trifluoromethyl-phenylmethanesulfonyl)-4-trifluoromethylsulfanyl-butyronitrile] came in with a melting point of 92 to 94 °C. Also, the EC50 in the data set on Aedes aegypti was less than 5 µg/mL.

Take `CCCC(C#N)(CCSC(F)(F)F)S(=O)(=O)CCC(F)(F)C(F)(F)F` (centres unmarked) [II-18, 2-(3,3,4,4,4-Pentafluoro-butane-1-sulfonyl)-2-(2-trifluoromethylsulfanyl-ethyl)-pentanenitrile]: the mortality at 2500 ppm with Ceratitis capitata (setting [3]) and with Anthonomus grandis (setting [3]) was more than 90% each time. This molecule also registered an EC50 with Aedes aegypti of less than 5 µg/mL.

The molecule `N#CC(CCSC(F)(F)F)S(=O)(=O)Cn1ccc(C(F)(F)F)n1` (centres unmarked) [II-13, 2-(3-Trifluoromethyl-pyrazol-1-ylmethanesulfonyl)-4-trifluoromethylsulfanyl-butyronitrile] displayed a melting point of 65 to 67 °C.

Take `N#CC(CCSC(F)(F)F)S(=O)(=O)Cc1ccc(C(F)(F)F)cc1` (centres unmarked) [II-11, 2-(4-Trifluoromethyl-phenylmethanesulfonyl)-4-trifluoromethylsulfanyl-butyronitrile]: the melting point lay in the range of 153 to 155 °C.

For the molecule `CC(C#N)(CCSC(F)(F)F)S(=O)(=O)CCSC(F)(F)F` (centres unmarked) [II-26, 2-Methyl-4-trifluoromethylsulfanyl-2-(2-trifluoromethylsulfanyl-ethanesulfonyl)-butyronitrile], in the data set on Anthonomus grandis (setting [3]), the mortality at 2500 ppm is more than 90%.

For the molecule `N#CC(CCC(F)(F)F)S(=O)(=O)CCC(F)(F)C(F)(F)F` (centres unmarked) [CE. 1, reference compound], the “activity in [%]” value in the data set with Heliothis virescens (800 ppm, scale 0% no biological activity to 100% total control) amounted to 0%.

As for `CC(CCSC(F)(F)F)(C(N)=S)S(=O)(=O)CCC(F)(F)C(F)(F)F` (centres unmarked) [II-23, 2-Methyl-2-(3,3,4,4,4-pentafluoro-butane-1-sulfonyl)-4-trifluoromethylsulfanyl-thiobutyramide], the mortality at 2500 ppm in the data set on Ceratitis capitata (setting [3]), in the data set on Anthonomus grandis (setting [3]) and in the data set on Heliothis virescens (setting [3]) was more than 90% each time.

Regarding `N#CC(CCSC(F)(F)F)S(=O)(=O)Cc1cccc(C(F)(F)F)c1` (centres unmarked) [II-5, 2-(3-Trifluoromethyl-phenylmethanesulfonyl)-4-trifluoromethylsulfanyl-butyronitrile], the melting point lay within 100 to 102 °C. In the data set on Aedes aegypti, the EC50 was less than 5 µg/mL.

With `CC(C#N)(CCSC(F)(F)F)S(=O)(=O)Cc1ccc(C(F)(F)F)nc1` (centres unmarked) [II-10, 2-Methyl-2-(6-trifluoromethyl-pyridin-3-ylmethanesulfonyl)-4-trifluoromethylsulfanyl-butyronitrile], the melting point is 109 to 110 °C.

As for `CC(CCSC(F)(F)F)(C(N)=O)S(=O)(=O)CCC(F)(F)C(F)(F)F` (centres unmarked) [II-20, 2-Methyl-2-(3,3,4,4,4-pentafluoro-butane-1-sulfonyl)-4-trifluoromethylsulfanyl-butyramide], the mortality at 2500 ppm in the data set with Ceratitis capitata (setting [3]) and with Anthonomus grandis (setting [3]) was more than 90% each time.

`CNC(=O)C(C)(CCSC(F)(F)F)S(=O)(=O)CCC(F)(F)C(F)(F)F` (centres unmarked) [II-21, 2,N-Dimethyl-2-(3,3,4,4,4-pentafluoro-butane-1-sulfonyl)-4-trifluoromethylsulfanyl-butyramide]: the mortality at 2500 ppm with Ceratitis capitata (setting [3]) and with Anthonomus grandis (setting [3]) was more than 90% throughout.

On to `CC(C#N)(CCSC(F)(F)F)S(=O)(=O)Cn1ccc(C(F)(F)F)n1` (centres unmarked) [II-14, 2-Methyl-2-(3-trifluoromethyl-pyrazol-1-ylmethanesulfonyl)-4-trifluoromethylsulfanyl-butyronitrile], for which the mortality at 2500 ppm in the data set on Ceratitis capitata (setting [3]) and in the data set with Anthonomus grandis (setting [3]) was more than 90% in each case.

With `N#CC(CCSC(F)(F)F)[S+]([O-])CCC(F)(F)C(F)(F)F` (centres unmarked) [II-16, 2-(3,3,4,4,4-Pentafluoro-butane-1-sulfinyl)-4-trifluoromethylsulfanyl-butyronitrile], the mortality at 2500 ppm in the data set with Myzus persicae (setting [1]), in the data set on Megoura viciae (setting [2]), in the data set on Ceratitis capitata (setting [3]) and in the data set with Anthonomus grandis (setting [3]) was more than 90% throughout.

`N#CC(CCSC(F)(F)F)S(=O)(=O)CCC(F)(F)C(F)(F)C(F)(F)F` (centres unmarked) [II-24, 2-(3,3,4,4,5,5,5-Heptafluoro-pentane-1-sulfonyl)-4-trifluoromethylsulfanyl-butyronitrile]: the mortality at 2500 ppm in the data set with Myzus persicae, in the data set on Megoura viciae and in the data set on Anthonomus grandis was more than 90% each time.

Regarding `CC(C#N)(CCSC(F)(F)F)S(=O)(=O)CCC(F)(F)C(F)(F)C(F)(F)F` (centres unmarked) [II-25, 2-(3,3,4,4,5,5,5-Heptafluoro-pentane-1-sulfonyl)-2-methyl-4-trifluoromethylsulfanyl-butyronitrile], the mortality at 2500 ppm with Myzus persicae, in the data set on Megoura viciae, with Ceratitis capitata, in the data set on Anthonomus grandis and in the data set with Heliothis virescens was more than 90% each time.

For the origin of these results see patent publication US8846569B2, “Pesticidal bis-organosulfur compounds” (Merial Limited, priority 2009, dated 2014).
